Experimental data as given in ChEMBL document CHEMBL2073786, “MRP2, a human conjugate export pump, is present and transports fluo 3 into apical vacuoles of Hep G2 cells” (Am J Physiol Gastrointest Liver Physiol, 2000).

Target: ATP-binding cassette sub-family C member 2 (Homo sapiens, UniProt Q92887)
Test: TP_TRANSPORTER: secretion into apical vacuoles in Hep G2 cells
Assay type: functional, cell-based
Settings: hepg2

Chain of ATP-binding cassette sub-family C member 2 (Q92887 whole entry): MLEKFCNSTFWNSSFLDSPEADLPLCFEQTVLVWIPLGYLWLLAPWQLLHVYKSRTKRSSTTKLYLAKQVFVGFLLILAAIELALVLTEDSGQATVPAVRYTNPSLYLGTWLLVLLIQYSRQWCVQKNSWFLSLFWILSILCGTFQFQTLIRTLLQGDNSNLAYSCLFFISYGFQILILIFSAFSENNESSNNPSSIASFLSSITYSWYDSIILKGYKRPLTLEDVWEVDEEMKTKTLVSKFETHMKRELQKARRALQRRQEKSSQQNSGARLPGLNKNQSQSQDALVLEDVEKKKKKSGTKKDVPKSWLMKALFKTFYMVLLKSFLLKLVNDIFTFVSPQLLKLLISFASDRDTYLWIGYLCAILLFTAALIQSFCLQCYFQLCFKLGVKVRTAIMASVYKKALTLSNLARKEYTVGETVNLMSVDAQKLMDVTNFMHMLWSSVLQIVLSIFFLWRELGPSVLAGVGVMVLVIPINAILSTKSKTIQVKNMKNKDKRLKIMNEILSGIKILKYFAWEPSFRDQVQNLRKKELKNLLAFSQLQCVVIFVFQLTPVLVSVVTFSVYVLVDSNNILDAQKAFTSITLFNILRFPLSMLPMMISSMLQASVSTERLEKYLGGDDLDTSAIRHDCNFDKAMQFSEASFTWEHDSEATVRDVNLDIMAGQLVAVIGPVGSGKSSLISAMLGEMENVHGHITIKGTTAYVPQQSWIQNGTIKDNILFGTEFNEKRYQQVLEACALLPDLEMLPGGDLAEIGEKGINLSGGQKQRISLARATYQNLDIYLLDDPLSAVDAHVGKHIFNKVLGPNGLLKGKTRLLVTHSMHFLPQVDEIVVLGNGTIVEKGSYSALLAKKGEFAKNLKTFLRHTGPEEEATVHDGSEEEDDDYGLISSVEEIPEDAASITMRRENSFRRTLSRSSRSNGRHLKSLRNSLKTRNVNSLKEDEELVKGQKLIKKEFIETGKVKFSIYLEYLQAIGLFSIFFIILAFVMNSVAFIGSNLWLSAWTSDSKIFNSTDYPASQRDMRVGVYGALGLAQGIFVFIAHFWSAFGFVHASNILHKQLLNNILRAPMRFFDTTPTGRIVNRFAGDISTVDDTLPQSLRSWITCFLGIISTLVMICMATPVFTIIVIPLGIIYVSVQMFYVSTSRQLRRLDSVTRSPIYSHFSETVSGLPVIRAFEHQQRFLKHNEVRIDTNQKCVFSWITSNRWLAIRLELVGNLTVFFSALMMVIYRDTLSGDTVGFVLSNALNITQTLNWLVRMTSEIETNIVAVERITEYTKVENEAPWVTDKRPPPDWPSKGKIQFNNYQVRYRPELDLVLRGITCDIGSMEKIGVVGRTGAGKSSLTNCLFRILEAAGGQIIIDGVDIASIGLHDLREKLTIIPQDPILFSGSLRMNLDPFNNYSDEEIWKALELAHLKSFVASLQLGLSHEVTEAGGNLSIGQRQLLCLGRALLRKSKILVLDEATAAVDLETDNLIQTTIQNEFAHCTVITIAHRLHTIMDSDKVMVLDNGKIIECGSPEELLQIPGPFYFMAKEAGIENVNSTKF

Row | Activity | Structure (SMILES)
1 | substrate [+] | CC(CCC(=O)NCC(=O)Nc1ccc(-c2c3ccc(=O)cc-3oc3cc(O)ccc23)c(C(=O)O)c1)[C@H]1CC[C@H]2[C@@H]3[C@H](O)CC4C[C@H](O)CC[C@]4(C)[C@H]3C[C@H](O)[C@]12C (some centres undefined)
2 | substrate [+] | O=C1OC2(c3ccc(O)cc3Oc3cc(O)ccc32)c2ccccc21 [FLUORESCEIN]
3 | substrate [+] | Cc1ccc(N(CC(=O)O)CC(=O)O)c(OCCOc2cc(-c3c4cc(Cl)c(=O)cc-4oc4cc(O)c(Cl)cc34)ccc2N(CC(=O)O)CC(=O)O)c1

Row | Structure (SMILES) | Activity
4 | CC(CCC(=O)NC(CCCCNc1ccc([N+](=O)[O-])c2nonc12)COO)[C@H]1CC[C@H]2[C@@H]3[C@H](O)CC4C[C@H](O)CC[C@]4(C)[C@H]3CC[C@]12C (some centres undefined) | substrate [+]
